Source: patent US20240165196A1, “Beta-Lactamase Inhibitors” (VIB VZW, priority 2021, published 2024)
Ends that are not written are not given here.

Legend:
[1] = system: E. coli TEM-104; assay: checkerboard assay (FICI), peptide versus penicillin G; assay type: cell-based; settings: strain with TEM; FICI below 0.5 = synergy
Source text: (§1) FIGS. 2A-2M. (FIG. 2A) TEM mutations and their effects on stability (total energy) as predicted by FoldX. […] Dashed line indicates a total energy difference of 0.5 kcal/mol, the FoldX cut-off above which mutations are considered to be destabilizing. (FIG. 2B) Barplot mapping mutations in (FIG. 2A) to the TEM sequence and indicating occurrence. […] The bar heights correspond to the number of times a mutation occurs across different TEM variants (right-hand y-axis). The color coding is identical to that in (FIG. 2A). Red line indicates the TANGO scores (indicated on the left-hand y-axis), with peaks corresponding to APRs. (FIG. 2C) Mapping of mutations in (FIG. 2A) and (FIG. 2B) to the TEM structure (pdb 1xpb). Protein surface is shown in gray, color coding of mutations is identical to (FIG. 2A) and (FIG. 2B). (FIGS. 2D, 2E, and 2F) Temperature-dependent evolution of the Right-Angle Light Scattering (RALS) intensity during a temperature ramp, similar as in FIG. 1F for key mutants of TEM1, namely TEM-10 (FIG. 2D), TEM-30 (FIG. 2E) and TEM-155 (FIG. 2F). Experiments were shown in triplicate, single repeat is shown. (FIG. 2G) Schematic representation of the structure of the peptides. APR—Aggregation Prone Region, R—Arginine. (FIG. 2H) Ribbon representation of the superposition of the crystal structures of TEM (green, pdb id 1bt5) and SHV (blue, pdb id 1shv). The catalytic site of the beta-lactamase activity is indicated and location of APR3 is shown in red. (FIG. 2I) TANGO aggregation score and alignment of APR3 in TEM and SHV. (FIG. 2J) Fractional Inhibitory Concentration Index determination of 5 peptides versus penicillin on E. coli TEM-104. […] FICI values below 0.5 indicate synergy. Values between 0.5 and 1.0 indicate additivity and values greater than 1 indicate indifference between the combined substances. (FIG. 2K) Same as J for E. coli SHV-11. (FIG. 2L) Same as J for a kanamycin resistant E. coli strain. (FIG. 2M) FICI values for the TEM3.2 peptide on a range of E. coli strains.
(§2) Moreover, the core sequence of peptide TEM3.0 also occurs in the structurally related SHV β-lactamase ([…]). Although the C-terminal extension residues H and N have been replaced with physicochemically similar R and Q, respectively (FIG. 2H). […] To quantify the synergy between these four peptides and penicillin G, we performed a so-called checkerboard assay, which allows to compare the activity of two test compounds co-incubated (here peptide and a beta-lactam antibiotic), to their individual activities in isolation. The result from the assay is quantified as the Fractional Inhibitory Concentration Index (FICI), and it is generally accepted that values below 0.5 indicate synergistic effects between the compounds. As a control, we generated a peptide using the same design, but based on a previously identified APR from the β-galactosidase enzyme (BGAL)^16 from E. coli (APR=SVIIWSL, peptide sequence=[…]) that has a MIC value>100 μg/mL on E. coli strain UZ_TEM104. We evaluated the synergy of the peptides with penicillin G in clinical E. coli isolates carrying the TEM ([…]) or SHV enzymes ([…]). […] As a further control, we also performed a checkerboard assay with an E. coli strain that was resistant to the aminoglycoside kanamycin and observed no synergy between this unrelated antibiotic and our peptides (FIG. 2L), in line with the notion that we are inhibiting a beta-lactamase but not the aminoglycoside degrading enzyme. […] The list of strains included some that harbored only TEM or SHV, but others contained additional Ambler Class A (CTX-M or […]) or Class B (VIM and NDM) beta-lactamases. […] In contrast, the presence of the NDM-type […], that does have a high affinity for Ampicillin and that is completely distinct in sequence and structure from TEM and SHV, seemed to completely prevent the effect of the peptide on the beta-lactam sensitivity of the strains in which it occurred (see also further). […]

[2] = system: E. coli SHV-11; assay: as above; assay type: cell-based; settings: strain with SHV-11; FICI below 0.5 = synergy
Source text: as §1, §2

[3] = system: strain containing NDM5a; assay: checkerboard assay (FICI), peptide and penicillin; assay type: cell-based, E. coli
Source text: (§3) FIGS. 4A-4K. […] IV—Intravenous, IP—Intraperitoneal, SC—Subcutaneously. The data shown is from a single experiment with 4 animals per group. […] (ns—non significant, #—P>0.05, *—P≤0.05, ***—P≤0.01, ****—P≤0.001). (FIG. 4G) FICI plot as in FIG. 2, for the E. coli strains indicated and the combination of penicillin and the TEM3.2 peptide. […] (FIG. 4J) Same as FIG. 4H for peptide BGAL. (FIG. 4K) Same as FIG. 4H for peptide P33.
(§4) As we wondered about the generality of our peptide design approach, we set out to design a peptide to inactivate a structurally unrelated beta-lactamase. To this end we turned to the Ambler class B beta-lactamase NDM-1 that confers resistance to many beta-lactam antibiotics, including carbapenems, and strains carrying this enzyme was soon dubbed ‘superbugs’ that are only partially sensitive to colistin and tigecycline^49. This enzyme was first isolated from a patient in 200850, by 2010 could be detected in clinical isolates throughout the UK and India^51 and by 2015 was detected in over 70 countries worldwide^52.
(§5) For the analysis of the synergy between the peptides with other antibiotics, a checkerboard assay was performed. Referring to the MICs of the selected peptides, checkerboard assay was designed to define their FICIs (Fractional Inhibitory Concentration Index) in combinations against different clinical isolates^62,63. Briefly, a total volume of 100 μL of Mueller-Hinton broth was distributed into each well of the 96-well plates. The first compound (peptide) of the combination was serially diluted vertically (128, 64, 32, 16, 8, 4, 2, 0 μg/mL) while the other drug (Beta-lactam or Kanamycin) was diluted horizontally in 96 well plate (from 3200 to 3 μg/mL). The total volume of each microtiter well was inoculated with 100 μL of MHB containing 1×10^6 CFU/mL bacteria. The plates were incubated at 37° C. for 24 h under aerobic conditions without shaking. Calculation of the FICI is used to analyze the results of the checkerboard assay by estimating the degree of synergistic effect. FICI is calculated as the sum of the individual fractional inhibitory concentrations (FICs) for each drug (where MIC A and MIC B denote the MIC of each drug alone, and MIC AA+B and MIC BA+B denote the concentrations of A and B in the drug combination). FICI=(MIC AA+B/MIC A)+(MIC BA+B/MIC B). With FICI≤0.5, the combination of antibiotics considered as a synergistic effect, 0.5<FICI≤1 indicates additivity, FICI>1 indicates indifference.

[4] = system: strain containing NDM5b; assay: checkerboard assay (FICI), peptide and penicillin; assay type: cell-based, E. coli
Source text: as §3, §4, §5

[5] = system: strain containing TEM-1; assay: checkerboard assay (FICI), peptide and penicillin; assay type: cell-based, E. coli; settings: strain TEM-1
Source text: as §3, §4, §5

[6] = system: E. coli UZ_TEM104; assay: FACS analysis with Propidium Iodide and pFTAA; assay type: cell-based; settings: 400 μg/mL penicillin G only, 4 h
Procedure: (§6) FIGS. 3A-3P. […] Three replicates are shown for each condition. […] A single representative image is shown. […] Three replicates are shown for each condition. (FIG. 3E) [Left] […] [Middle] […] [Right] […] A single representative image is shown. […] A single representative image is shown. […] A single representative image is shown. […] A single representative blot is shown. […] 106 cells were analysed for the plot.
First, we tested the assay using a mixture of live and heat inactivated (FIG. 3L) or just live bacteria (FIG. 3M), showing that heat inactivated, but not live bacteria are stained with PI, and neither are stained with pFTAA.
Bacterial cells in the cleaned suspensions were stained with both propidium iodide (PI) and FITC peptide to evaluate the killing rate and peptide uptake in a two-dimensional analysis. […] Treated bacteria washed with PBS buffer two times. One microliter of PI (Invitrogen) was added to the bacteria and incubated for 5 min. The bacteria were used by FACS tubes for 40000 events. To correlate the activity of the peptides with cell death, the fluorescence intensity was measured in two channels using the Gallios™ Flow Cytometer (Beckman Coulter, USA), PI: excitation 536 nm and emission 617 nm, FITC: excitation 490 nm and emission 525 nm. Heated bacteria at 90° C. for 10 min were used as PI-positive control.

[7] = system: E. coli strain UZ_TEM104; assay type: cell-based; settings: penicillin alone, buffer, additive 0 μg/mL
[8] = system: TEM beta-lactamase in E. coli UZ_TEM104; assay: western blot of inclusion body (IB) fraction for TEM; assay type: cell-based; settings: 12 μM peptide in PBS, 120 min
Procedure: as §6
(§7) Moreover, we confirmed the presence of the protein in the correct band using mass spectrometry proteomics. We repeated this with a strain expressing SHV-154, blotting with a polyclonal rabbit antibody raised against the recombinant SHV enzyme described above (FIG. 3K).
(§8) The overnight culture of bacteria was centrifuged for 30 min at 4,000×g and cells were washed with physiological water (NaCl 0.9%). Bacterial cells were treated by peptide at the appropriate concentration for at least 2 h at 37 C. The bacterial pellets were washed with 10 mL buffer A (50 mM HEPES, pH 7.5, 300 mM NaCl, 5 mM β-mercaptoethanol, 1.0 mM EDTA) and centrifuged at 4° C. for 30 min at 4,000×g. The supernatant was discarded and 20 mL of buffer B (buffer A plus 1 tablet of the protease and phosphatase Inhibitor Cocktail (ab201119, Abcam, UK) was added to the bacterial pellet. In order to break the cells, a High-Pressure Homogenizer (Glen Creston Ltd) with the pressure set to 20,000-25,000 psi was used on ice, and in addition, the suspensions were sonicated (Branson Digital sonifier 50/60 Hz) on ice with alternating 2 min cycle (15 pulses at 50% power with 30 s pauses on ice, until completing 2 min total sonication time). The lysed cells were centrifuged at 4° C. for 30 min at 11,000×g. The precipitated fraction was afterward re-suspended with 10 mL buffer D (buffer A plus 0.8% (V/V) Triton X-100, 0.1% sodium deoxycholate) and the suspension was sonicated to ensure the pellet is completely dissolved. This step was repeated three times. Centrifugation was performed at 4° C. for 30 min at 11,000×g. Finally, to solubilize IBs, the pellet was suspended in 500 ul of buffer F (50 mM HEPES, pH 7.5, 8.0 M urea) of precipitated fraction.

[9] = system: SHV beta-lactamase in strain expressing SHV-154; assay: western blot of inclusion body (IB) fraction for SHV; assay type: cell-based, E. coli; settings: 12 μM peptide in PBS, 120 min
Procedure: as §6, §7, §8

Compound	synergy with penicillin G (FICI) [1]	synergy with penicillin G (FICI) [2]	synergy with penicillin (FICI) [3]	synergy with penicillin (FICI) [4]	synergy with penicillin (FICI) [5]	change in PI (cell death) and pFTAA (aggregation) channels [6]	MIC penicillin [7] [µg/mL]	enrichment of the TEM protein in inclusion bodies (western blot) [8]	accumulation of the SHV enzyme in inclusion bodies (western blot) [9]
RSVIIWSLGRRPRSVIIWSLGRR [BGAL]	no synergy	no synergy	neither showed synergy	neither showed synergy	neither showed synergy	–	–	–	–
RLAAALMLRRPRAQILNWIRR (NDM1-2)	–	–	synergy	synergy	not in a strain containing TEM-1	–	–	–	–
CC1(C)S[C@@H]2[C@H](NC(=O)Cc3ccccc3)C(=O)N2[C@H]1C(=O)O [penicillin G, Benzylpenicillin sodium]	–	–	–	–	–	no major change in either channel	1600	–	–
RTAQILNWRRPRTAQILNWRR (NDM1-1)	–	–	synergy	synergy	not in a strain containing TEM-1	–	–	–	–
RLTAFLRQRRPRLTAFLHNRR (non-natural molecule) [TEM3.3]	synergy	synergy	–	–	–	–	–	clear enrichment of the TEM protein in IBs	accumulates in IBs
RLTAFLRQRRPRLTAFLRQRR (non-natural molecule) [TEM3.1]	–	clear synergy	–	–	–	–	–	not	accumulates in IBs
